Experimental data: PubChem BioAssay AID1996
Values after ≈ are worked out from the molar mass of the structure shown.

Settings: buffer; pH 7.4; 200.0 µM

SMILES | solubility kinetic
CC(C)C(=O)O/N=C(\N)c1ccc(Oc2ccc(Cl)cc2)c([N+](=O)[O-])c1 | 3.5 µg/mL (≈ 9.26 µM)
CN1CCCN(c2ccc([N+](=O)[O-])cc2)CC1 | > 35.3 µg/mL
COc1ccc(N2CCOCC2)c(NC(=O)c2cc3ccccc3o2)c1 | < 0.4 µg/mL
O=C(OCC(=O)N1CCOCC1)c1ccccc1O | 29.8 µg/mL (≈ 112 µM)
CCOC(=O)c1cnc(-c2ccccc2)nc1Oc1ccc(OC)cc1 | < 0.4 µg/mL
Cc1csc(NS(=O)(=O)c2ccc(Cl)cc2)n1 | 42.4 µg/mL (≈ 147 µM)
O=C(/C=C/c1cccc(F)c1)OCC(=O)N1CCc2ccccc21 | 3.2 µg/mL (≈ 9.84 µM)
COc1ccc(-c2cc(=O)oc(-c3cccc(C)c3)n2)cc1 | 1.1 µg/mL (≈ 3.75 µM)
Cc1onc(-c2ccccc2Cl)c1C(=O)N1CC(C)CC(C)C1 (configuration not stated) | > 49.9 µg/mL
CCS(=O)(=O)c1ccc(O)c(NC(=O)c2cc(-c3ccccn3)nc3ccccc23)c1 | > 65 µg/mL
COc1ccccc1CC(=O)N(Cc1ccccc1)c1ccc(C)cc1 | 10 µg/mL (≈ 28.9 µM)
COc1cc(C(=O)OCC(=O)NC2CCCCC2)cc(OC)c1OC | > 52.7 µg/mL
O=C(COC(=O)c1ccc([N+](=O)[O-])o1)NC1CCCc2ccccc21 (configuration not stated) | 26.3 µg/mL (≈ 76.4 µM)
Cc1ccc(NC(=O)CCN2CC(C)OC(C)C2)cc1.Cl (configuration not stated) | > 46.9 µg/mL
CN(Cc1ccc(F)cc1)C(=O)CNC(=O)C1CCCCC1 | > 46 µg/mL
CCOc1ccc(NC(=S)NCCCN2CCOCC2)cc1 | > 48.5 µg/mL
CC(C)N(C(=S)Nc1cccnc1)c1ccccc1 | 32.8 µg/mL (≈ 121 µM)
Nc1cc(Oc2ccc(Cl)cc2Cl)nc(N)n1 | 39.5 µg/mL (≈ 146 µM)
CCCC1/C(=N/O)CC(c2ccccc2)NC1c1ccccc1 (configuration not stated) | < 0.3 µg/mL
NC(=O)Nc1ccc(C(=O)OCC(=O)Nc2ccc(Cl)cn2)cc1 | 5.1 µg/mL (≈ 14.6 µM)
CC1(C)Nc2ccccc2C(=O)N1c1ccc(Br)cc1 | 12.1 µg/mL (≈ 36.5 µM)
O=C(CCOc1ccccc1)N1CCN(c2ccc(O)cc2)CC1 | > 49 µg/mL
Cc1ccn2cc(CNS(=O)(=O)c3cccs3)nc2c1 | > 46.1 µg/mL
CCOC(=O)c1csc(NC(=O)c2ccc(C#N)cc2)n1 | 1 µg/mL (≈ 3.32 µM)
Cc1nn(CC(=O)NC2CCC(C)CC2)c(=O)c(C#N)c1C (configuration not stated) | > 45.4 µg/mL

SMILES | solubility kinetic
CC(C)c1ccc(N2C(=O)CC(=O)NC2=O)cc1 | 34.4 µg/mL (≈ 140 µM)
CSc1ncccc1C(=O)OCC(=O)c1ccc[nH]1 | 9.7 µg/mL (≈ 35.1 µM)
Cl.OC(CN1CCNCC1)Cn1c2ccccc2c2ccccc21 (configuration not stated) | 54.4 µg/mL
CN(C)CCC=C1c2ccccc2CCc2ccccc21.Cl | > 47.1 µg/mL
COc1ccc2cc(C(C)C(=O)N3CCC(C(N)=O)CC3)ccc2c1 (configuration not stated) | > 51.1 µg/mL
O=C(NCc1ccc2c(c1)OCO2)c1ccc(Br)s1 | 1.9 µg/mL (≈ 5.58 µM)
Cc1ccc(C)c(OCC(=O)O/N=C(\N)c2cccnc2)c1 | 11.2 µg/mL (≈ 37.4 µM)
N#CCNC1CC(=O)N(c2ccccc2)C1=O (configuration not stated) | > 34.4 µg/mL
COc1cccc(OCCNC(=O)Nc2cc(F)c(F)cc2Cl)c1 | < 0.4 µg/mL
CCOc1ccc(N/C=C/C(=O)c2ccc(OC)cc2)cc1 | < 0.6 µg/mL
O=C1CCCc2c1nc(-c1ccc(F)cc1)n2O | > 36.9 µg/mL
CNC(=O)/C(=C\c1ccco1)NC(=O)c1ccco1 | > 39 µg/mL
CCc1noc(C)c1C(=O)Nc1nc(-c2ccccc2)cs1 | 5 µg/mL (≈ 16 µM)
COC(=O)c1sccc1NC(=O)c1ccc(OC)c([N+](=O)[O-])c1 | < 0.4 µg/mL
COC(=O)c1cccc(NC(=O)C(C)(C)C)c1 | > 35.3 µg/mL
CCOc1ccc(CCN2CN(CC)CNC2=S)cc1OCC | > 50.6 µg/mL
Cc1ccc(S(=O)(=O)NCC2CCCO2)cc1 (configuration not stated) | > 38.3 µg/mL
COC(=O)CN(c1cccc(C)c1)S(=O)(=O)c1ccccc1 | 41.7 µg/mL (≈ 131 µM)
Cc1ccccc1NC(=O)CCCNC(=O)c1ccc(Cl)cc1 | 42.6 µg/mL (≈ 129 µM)
COc1ccc2nc(N(Cc3ccccc3)C(=O)CCNC(C)=O)sc2c1 | 3.3 µg/mL (≈ 8.61 µM)
CC(C)(C)c1cc(CN(CCO)CCO)c(O)c(C(C)(C)C)c1 | 38.7 µg/mL (≈ 120 µM)
COc1ccc2[nH]cc(CCn3ccc(=O)c(C)c3C)c2c1 | 42.2 µg/mL (≈ 142 µM)
O=C(COC(=O)CSc1ccccc1)Nc1ccc(F)cc1F | > 50.6 µg/mL
CC(=O)NN1CCc2cc3ccc(C)cc3nc21 | > 36.2 µg/mL
O=C(N/C(=C\c1ccccc1)C(=O)N1CCOCC1)c1ccco1 | > 49 µg/mL

More lines, now with the values ahead:

solubility kinetic | SMILES
5.2 µg/mL (≈ 16.2 µM) | Cc1sc2ncnc(SCC(=O)NC3CCCC3)c2c1C
5.7 µg/mL (≈ 16.8 µM) | CCOc1ccc2oc(C(=O)Nc3ccc4c(c3)OCO4)c(C)c2c1
25.4 µg/mL (≈ 70.1 µM) | Cc1ccc2c(CN3CCN(Cc4ccccc4)CC3)cc(=O)oc2c1C
31.3 µg/mL (≈ 122 µM) | CCOc1ccccc1/C=C(\C#N)C(=O)NC1CC1
19 µg/mL (≈ 67.2 µM) | ONC(=Nc1ccccc1Cl)c1c(F)cccc1F
> 40.2 µg/mL | COc1ccccc1NC1=NC(CO)(CO)CS1
18.5 µg/mL (≈ 55.7 µM) | O=C(c1c(F)cccc1F)N1CCN=C1SCc1ccccc1
> 40.3 µg/mL | Cl.O=C(Cc1ccccc1)NCCN1CCCC1
< 0.2 µg/mL | COC(=O)c1cnc(Nc2ccc(Cl)cc2)c([N+](=O)[O-])c1
36.7 µg/mL (≈ 124 µM) | COC(=O)CSc1nc(NC#N)nc(NC(C)(C)C)n1
45.7 µg/mL (≈ 136 µM) | CCCCOC(=O)c1ccc(NC(=O)C(=O)NCCN(C)C)cc1
> 47 µg/mL | Cn1cccc1/C=N/NC(=O)CSc1nc2ccccc2[nH]1
> 51.5 µg/mL | COc1ccc(OCC(O)CNS(=O)(=O)c2cccs2)cc1 (configuration not stated)
> 56.6 µg/mL | COCC(C)n1c(SCC(=O)N2CCOCC2)nc2ccccc2c1=O (configuration not stated)
> 45.5 µg/mL | CCOC(=O)c1c(NCCN(C)C)c2ccccc2[nH]c1=O
> 45.4 µg/mL | O=C(CSCCOc1ccccc1)NCc1ccncc1
7.9 µg/mL (≈ 25.5 µM) | NC(=O)NC(=O)C(Nc1ccc2c(c1)CCC2)c1ccccc1 (configuration not stated)
26.4 µg/mL (≈ 82.4 µM) | CCC(C(=O)NCCc1c[nH]c2ccc(C)cc12)c1ccccc1 (configuration not stated)
> 43.1 µg/mL | Cc1nn(C)cc1S(=O)(=O)Nc1ccc(F)c(F)c1
0.8 µg/mL (≈ 2.85 µM) | O=C1NC(=Nc2ccccc2)S/C1=C\c1ccccc1
59.3 µg/mL (≈ 143 µM) | COc1cc(C(=O)NC(=S)N(CCC#N)Cc2cccnc2)cc(OC)c1OC
6.8 µg/mL (≈ 26 µM) | C=CCCCCCCCCC(=O)Nc1ncccn1
29.3 µg/mL (≈ 132 µM) | c1ccc(CCn2cnc3ccccc32)cc1
> 49.5 µg/mL | CN(CC(=O)Nc1ccc(F)c(F)c1F)C(=O)C1=COCCO1

solubility kinetic | SMILES
9 µg/mL (≈ 27.4 µM) | CC1CCN(C(=O)COC(=O)CCc2c[nH]c3ccccc23)CC1
3.8 µg/mL (≈ 12 µM) | O=C1NC(=O)/C(=C/c2ccc(-c3cccc([N+](=O)[O-])c3)o2)S1
> 46.6 µg/mL | CC(C)OC(=O)/C(=C\c1cccnc1)NC(=O)c1ccccc1
10 µg/mL (≈ 37.1 µM) | CCNc1nc(NCC)nc(N(CC)C(N)=S)n1
10.8 µg/mL (≈ 36.5 µM) | Cc1ccc(C)c(NC2=C(Cl)C(=O)OC2OC(C)C)c1 (configuration not stated)
23.8 µg/mL (≈ 77.4 µM) | O=C(CCc1ccccc1)NCC1(c2ccccc2)CCCC1
> 47.7 µg/mL | O=C(COC(=O)COc1ccc(Cl)cc1Cl)NC1CC1
2.2 µg/mL (≈ 6.5 µM) | COc1ccc(C(=O)Nc2ccc3ccccc3n2)c(OC)c1OC
< 0.2 µg/mL | CCCN1C(=O)/C(=C/c2nc3ccccc3c(=O)[nH]2)c2cc(C)ccc21
5 µg/mL (≈ 17.6 µM) | Cc1ccc(CNc2ncnc3cc(Cl)ccc23)cc1
3.1 µg/mL (≈ 10.4 µM) | O=C(COC(=O)c1cccs1)Nc1ccc(Cl)cn1
1.5 µg/mL (≈ 5.51 µM) | C=CCNC(=O)c1cc(-c2ccc3c(c2)OCO3)on1
5.7 µg/mL (≈ 15.1 µM) | O=c1[nH]c2ccc(S(=O)(=O)N3CCN(c4ccc(F)cc4)CC3)cc2o1
1.5 µg/mL (≈ 5.03 µM) | Cc1ccccc1S(=O)(=O)c1cc2ccccc2nc1N
> 35.9 µg/mL | CCC(=O)NNc1nc2c(F)cccc2s1
< 0.2 µg/mL | N#C/C(=C(\O)c1cc(Cl)sc1Cl)c1nc2ccccc2[nH]1
> 60.5 µg/mL | CCOC(=O)c1c(C)[nH]c(C)c1C(=O)COC(=O)Cc1ccc(OC)c(OC)c1
> 32.1 µg/mL | Cc1nc(C)n(C)c(=O)c1-c1ccccc1
> 48.1 µg/mL | COc1ccc(Nc2c3c(nc4ccccc24)CCC3)c(OC)c1
> 39 µg/mL | O=C1CCCC(O)=C1N=Nc1ccc(C(=O)O)cc1
1.3 µg/mL (≈ 4.15 µM) | COC(=O)c1ccc(NC(=O)c2ccc3nsnc3c2)cc1
1.9 µg/mL (≈ 6.12 µM) | CC(=O)c1ccc(NC(=O)c2ccc3nc(C)sc3c2)cc1
40.1 µg/mL (≈ 150 µM) | COc1ccc(OCC(O)CN2CCOCC2)cc1 (configuration not stated)
> 49.4 µg/mL | CC1(C)C2CCC1(CS(=O)(=O)N1CCCC1C(=O)O)C(=O)C2 (configuration not stated)

solubility kinetic | SMILES
> 57.7 µg/mL | O=S(=O)(Nc1nc2ccccc2nc1NCC1CCCO1)c1ccccc1 (configuration not stated)
7.7 µg/mL (≈ 22.6 µM) | Cc1cc(NC(=O)CSc2nc3ccccc3n2CCC#N)no1
> 47.2 µg/mL | O=C(c1ccco1)N1CCN(C23CC4CC(CC(C4)C2)C3)CC1
> 30 µg/mL | C=CCn1c(CCC)nc2ccccc21
> 49.9 µg/mL | O=S(=O)(NCc1cccnc1)c1ccc(Cl)c2ccccc12
0.3 µg/mL (≈ 1.08 µM) | Cc1ccc(NC(=O)c2cnc3ccccc3n2)cc1C
> 41.6 µg/mL | CC(=O)N1c2ccccc2-c2nc3ccccc3n2C1C (configuration not stated)
8.7 µg/mL (≈ 25.6 µM) | CC1CCCCC1NC(=O)CO/N=C/c1ccc(OC(F)F)cc1 (configuration not stated)
55.8 µg/mL (≈ 144 µM) | COc1ccccc1OCCC(=O)OCC(=O)Nc1ccc2c(c1)OCCO2
1.7 µg/mL (≈ 5.28 µM) | CC(=O)Nc1ccc(C(=O)OCc2ccc(F)cc2Cl)cc1
10.6 µg/mL (≈ 53.8 µM) | O=C1NC(=O)c2cc3ccccc3cc21
> 25.8 µg/mL | C/C(=C/C#N)Nc1ccc(C)cc1
> 47.2 µg/mL | COc1ccccc1NC(=O)CC(=O)Nc1ccccc1OC
> 38.4 µg/mL | COc1ccccc1CC(=O)Nc1cc(C)ccn1
> 36.9 µg/mL | O=C1N=c2ccccc2=C1c1sc(=O)[nH]c1O
21.7 µg/mL (≈ 81.7 µM) | O=C(OCc1ccc(F)cc1)c1cccnc1Cl
0.7 µg/mL (≈ 2.24 µM) | COc1ccccc1C(=O)NC(=O)Nc1c(C)cc(C)cc1C
< 0.3 µg/mL | O=C(Nc1ccc(Br)cc1)NC1CCCCCCC1
34 µg/mL (≈ 133 µM) | COC(=O)[C@@H](NC(=O)N1CCC(C)CC1)C(C)C
0.7 µg/mL (≈ 2.07 µM) | O=C1N=c2ccccc2=C1c1sc(Nc2cccc(O)c2)nc1O
> 45.6 µg/mL | Cl.O=C(OCCN1CCCCC1)c1cccc(Cl)c1
0.9 µg/mL (≈ 3.21 µM) | Cc1ccccc1NC(=O)NC1CCCc2ccccc21 (configuration not stated)
39.3 µg/mL (≈ 115 µM) | COC(=O)COc1ccc(S(=O)(=O)N2CCCCCC2)cc1C
> 40.4 µg/mL | Cc1ccccc1C(=O)Nc1ccc2c(c1)OCCO2
